Here are results for six compounds from patent US5306819A, “Certain aryl a cycloalkyl fused imidazopyrazinols; and new class of GABA brain receptor ligands” (Neurogen Corporation, priority 1992, dated 1994).

One experiment relates to GABA receptor. As to conditions: Tallman et al., 1978; cited from earlier work.
A further experiment deals with GABAa receptor. Kind of experiment: assay for GABAa receptor activity: inhibition of 3H-RO15-1788 (3H-Flumazenil) binding to rat cortical tissue. As to conditions: 3H-RO15-1788 0.5 nM, 30 min at 4°. The method, then:
The pharmaceutical utility of compounds of this invention are indicated by the following assay for GABAa receptor activity.
Assays are carried out as described in Thomas and Tallman (J. Bio. Chem. 156: 9838-9842, J. Neurosci. 3:433-440, 1983). Rat cortical tissue is dissected and homogenized in 25 volumes (w/v) of 0.05M Tris HCl buffer (pH 7.4 at 4° C.). The tissue homogenate is centrifuged in the cold (4°) at 20,000×g for 20'. The supernatant is decanted and the pellet is rehomogenized in the same volume of buffer and again centrifuged at 20,000×g. The supernatant is decanted and the pellet is frozen at -20° C. overnight. The pellet is then thawed and rehomogenized in 25 volumes (original wt/vol) of buffer and the procedure is carried out twice. The pellet is finally resuspended in 50 volumes (w/vol of 0.05M Tris HCl buffer (pH 7.4 at […]).
Incubations contain […] of tissue homogenate, […] of radioligand 0.5 nM (^3 H-RO15-1788 [^3 H-Flumazenil] specific activity 80 Ci/mmol), drug or blocker and buffer to a total volume of […]. Incubations are carried for 30 min at 4° then are rapidly filtered through GFB filters to separate free and bound ligand. Filters are washed twice with fresh 0.05M Tris HCl buffer (pH 7.4 at 4° C.) and counted in a liquid scintillation counter. […] diazepam is added to some tubes to determine nonspecific binding. Data are collected in triplicate determinations, averaged and % inhibition of total specific binding is calculated. Total Specific Binding=Total-Nonspecific. In some cases, the amounts of unlabeled drugs is varied and total displacement curves of binding are carried out. Data are converted to a form for the calculation of IC50 and Hill Coefficient (nH).

For `CN1CCc2cc3c(cc2[C@H]1[C@@H]1OC(=O)c2c1ccc1c2OCO1)OCO3` [(+) bicuculline], the “Enhancement of benzodiazepine binding by GABA agonists is blocked” value with GABA receptor was “blocked”.
In the case of `CN1CCc2cc3c(cc2[C@@H]1[C@H]1OC(=O)c2c1ccc1c2OCO1)OCO3` [(-) bicuculline], the “Enhancement of benzodiazepine binding by GABA agonists is blocked” value in the experiment on GABA receptor is given as “much less active”.
As to `O=c1c(-c2ccccc2F)nc2c[nH]c3c(n1-2)CCCC3` [Compound 1, 2-(2-fluorophenyl)-imidazo-[1,2-a]-6,7,8,9-tetrahydroquinoxalin-1(5H)-one], the IC50 – broadly, the point on the concentration scale where inhibition reaches its midpoint – at GABAa receptor amounted to 0.011 µM.
Same read-out and setting: under `COc1ccc(-c2nc3c[nH]c4c(n-3c2=O)CCCC4)c(F)c1` [Compound 8, 2-(2-Fluoro-4-methoxyphenyl)-imidazo-[1,2-a]-6,7,8,9-tetrahydroquinoxalin-1(5H)-one] stands 0.0054 µM; under `COc1ccc(-c2nc3c[nH]c4c(n-3c2=O)CCCCC4)c(F)c1` [Compound 15, 2-(2-Fluoro-4-methoxyphenyl)-cyclohept[b]imidazo[2,1-f]pyrazin-1(5H)-one], 0.013 µM; under `COc1ccc(-c2nc3c[nH]c4c(n-3c2=O)CCC4)c(F)c1` [Compound 16, 2-(2-Fluoro-4-methoxyphenyl)-cyclopent[b]imidazo[2,1-f]pyrazin-1(5H)-one], 0.015 µM.
